Values joined by “and” are separate entries in the source; they are usually repeats but may differ in a detail not shown here. Equal values may be shown once.
Assays:
[1] = for Triple point temperature: Adiabatic calorimetry
[2] = Molar enthalpy of transition or fusion; conditions: Crystal 1; Adiabatic calorimetry

ON=C1CCCCC1 [cyclohexanone oxime]
[1]
Conditions | vapor or sublimation pressure
285.7 K, Crystal 2, Transpiration method | 0.00078 kPa
288.11 K, Crystal 2, Knudsen effusion | 0.001028 kPa
290 K, Crystal 2, Transpiration method | 0.00118 kPa
292.6 K, Crystal 2, Transpiration method | 0.00157 kPa
293.82 K, Crystal 2, Knudsen effusion | 0.00186 kPa
293.87 K, Crystal 2, Knudsen effusion | 0.001759 kPa
295.1 K, Crystal 2, Transpiration method | 0.00215 kPa
298.1 K, Crystal 2, Transpiration method | 0.00275 kPa
298.2 K, Crystal 2, Transpiration method | 0.00302 kPa and 0.00293 kPa
298.77 K, Crystal 2, Knudsen effusion | 0.003118 kPa
301.1 K, Crystal 2, Transpiration method | 0.00396 kPa
302.9 K, Crystal 1, Transpiration method | 0.005 kPa
303.73 K, Crystal 1, Knudsen effusion | 0.005234 kPa
303.74 K, Crystal 1, Knudsen effusion | 0.005145 kPa
305.4 K, Crystal 1, Transpiration method | 0.00626 kPa
307.6 K, Crystal 1, Transpiration method | 0.00806 kPa
308.7 K, Crystal 1, Knudsen effusion | 0.00837 kPa
310.2 K, Crystal 1, Transpiration method | 0.01034 kPa
313 K, Crystal 1, Transpiration method | 0.0136 kPa
313.62 K, Crystal 1, Knudsen effusion | 0.01375 kPa
315.3 K, Crystal 1, Transpiration method | 0.01601 kPa
318 K, Crystal 1, Transpiration method | 0.02155 kPa
320.3 K, Crystal 1, Transpiration method | 0.02671 kPa
323.1 K, Crystal 1, Transpiration method | 0.03364 kPa
323.32 K, Crystal 1, Knudsen effusion | 0.03373 kPa
323.35 K, Crystal 1, Knudsen effusion | 0.03472 kPa
325.4 K, Crystal 1, Transpiration method | 0.04273 kPa
328 K, Crystal 1, Transpiration method | 0.05312 kPa
330.4 K, Crystal 1, Transpiration method | 0.06593 kPa
333.1 K, Crystal 1, Transpiration method | 0.08234 kPa
338.2 K, Crystal 1, Transpiration method | 0.1232 kPa
340.2 K, Crystal 1, Transpiration method | 0.1376 kPa
343.3 K, Crystal 1, Transpiration method | 0.1758 kPa
345.6 K, Crystal 1, Transpiration method | 0.213 kPa
348.3 K, Crystal 1, Transpiration method | 0.2639 kPa

[1], Liquid, Transpiration method
Conditions | vapor or sublimation pressure [kPa]
364.6 K | 0.8624
365.7 K | 0.8948
367.9 K | 1.03
369.7 K | 1.119
370.5 K | 1.181
373.6 K | 1.388
373.7 K | 1.405
376.6 K | 1.661
377.7 K | 1.759
377.8 K | 1.786
379.7 K | 1.922
381.8 K | 2.124
382.8 K | 2.221
385.8 K | 2.574
388.9 K | 3.046
391.9 K | 3.486
394.9 K | 3.978

[1]
Conditions | Triple point temperature [K]
Crystal 1 | 362.2
Crystal 2 | 301.5
Crystal 3 | 241.5

Conditions | Molar enthalpy of transition or fusion [kcal/mol]
[2] | 2.977

Reference: the NIST ThermoML archive (doi:10.1021/je700546r)
